Source: ChEMBL document CHEMBL3853353, “Identification and optimization of a new series of anti-tubercular quinazolinones” (Bioorg Med Chem Lett, 2016)
In brackets after ≈: the same amount, converted by molar mass.

How the values were obtained:
[1] = tested on: Mycobacterium tuberculosis; assay: Antimycobacterial activity against Mycobacterium tuberculosis H37Rv incubated for 5 days by Bactiter-Glo assay; assay type: functional; conditions: 120 h
[2] = Cytotoxicity against human HepG2 cells assessed as reduction in cell viability after 40 hrs by Celltiter-Glo assay
[3] = tested on: Mycobacterium tuberculosis; assay: Ratio of MIC80 for Mycobacterium tuberculosis H37Rv in presence of 25% human serum to MIC80 for Mycobacterium tuberculosis H37Rv; assay type: functional
[4] = tested on: Mycobacterium tuberculosis; assay: Antimycobacterial activity against Mycobacterium tuberculosis H37Rv incubated for 5 days in presence of 25% human serum by Bactiter-Glo assay; assay type: functional; conditions: 120 h
Cytochrome P450 3A4 [5] = target: T1, Cytochrome P450 3A4 (Homo sapiens, UniProt P08684); assay: Inhibition of CYP3A4 in human liver microsomes assessed as 1'-hydroxymidazolam metabolite formation using midazolam as substrate incubated for 10 mins by HPLC-MS method
T1 sequence (P08684 whole entry): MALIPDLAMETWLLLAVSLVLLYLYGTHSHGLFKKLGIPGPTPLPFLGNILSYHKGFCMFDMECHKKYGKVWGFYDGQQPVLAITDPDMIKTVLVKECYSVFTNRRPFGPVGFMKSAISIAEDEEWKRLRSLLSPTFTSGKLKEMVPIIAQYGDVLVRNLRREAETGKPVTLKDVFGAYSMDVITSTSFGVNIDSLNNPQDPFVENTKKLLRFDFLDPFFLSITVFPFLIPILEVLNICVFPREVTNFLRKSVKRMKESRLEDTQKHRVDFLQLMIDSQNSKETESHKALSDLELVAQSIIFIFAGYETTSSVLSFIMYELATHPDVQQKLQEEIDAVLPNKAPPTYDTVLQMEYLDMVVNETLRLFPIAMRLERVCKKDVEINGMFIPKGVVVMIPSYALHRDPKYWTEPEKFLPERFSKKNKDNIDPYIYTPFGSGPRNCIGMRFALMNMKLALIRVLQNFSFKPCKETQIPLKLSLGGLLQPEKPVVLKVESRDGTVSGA

[6] = Aqueous equilibrium solubility of compound in pH 7.4 solution at 20 degC; conditions: aqueous pH 7.4 solution
[7] = tested on: Mycobacterium tuberculosis; assay: Antimycobacterial activity against GFP-tagged Mycobacterium tuberculosis H37Rv infected in mouse RAW264.7 cells incubated for 4 days by Mask blue/Hoechst/FITC staining based fluorescence microscopic analysis; assay type: functional; conditions: 96 h
[8] = Lipophilicity, log P of compound; conditions: octanol/water
[9] = Permeability in human Caco2 cells; conditions: caco-2
Cytochrome P450 3A4 [10] = target: T1, Cytochrome P450 3A4; assay: Inhibition of CYP3A4 in human liver microsomes assessed as 6-beta-hydroxytestosterone metabolite formation using testosterone as substrate incubated for 30 mins by HPLC-MS method
[11] = Aqueous equilibrium solubility of compound in pH 1 solution at 20 degC; conditions: aqueous pH 1 solution

Structure (SMILES) | MIC80 [1] [µM] | IC50 at 40 h ([2]; HepG2 cells) [µM] | Ratio [3] | MIC80 [4] [µM] | IC50 at 40 h ([2]; hepg2) [µM] | IC50 (Cytochrome P450 3A4 [5]) [µM] | solubility thermodynamic [6] [µg/mL] | MIC80 [7] [µM] | logP [8] | permeability [9] | IC50 (Cytochrome P450 3A4 [10]) [µM] | solubility thermodynamic [11] [µg/mL]
COc1ccc(-c2ccc(CCNc3nc4cc(Cl)ccc4c(=O)n3C)nc2)cn1 | 0.31 (≈ 0.131 µg/mL) | 24.1 | 8 | > 15 | – | – | – | – | – | – | – | –
Cn1c(NCCc2ccc(-n3cccn3)cc2)nc2cc(Cl)ccc2c1=O | 0.02 (≈ 0.0076 µg/mL) | – | – | 8.56 | 17.3 | – | – | – | – | – | – | –
Cn1c(NCCc2ccc(-c3ncc(F)cn3)cc2)nc2cc(Cl)ccc2c1=O | 0.003 (≈ 0.00123 µg/mL) | > 30 | 30 | 0.39 | – | > 30 | < 1 | 0.013 (≈ 0.00533 µg/mL) | 4.46 | Permeable | 9.9 | 11 (≈ 26.8 µM)
COc1ccc(CCN(C)c2nc3cc(Cl)ccc3c(=O)n2C)cc1 | 11.2 (≈ 4.01 µg/mL) | > 30 | >10 | – | – | – | – | – | – | – | – | –
Cn1c(NCCc2ccc(-c3ncccn3)cc2)nc2cc(Cl)ccc2c1=O | 0.079 (≈ 0.031 µg/mL) | – | – | 4.06 | 25.4 | – | – | – | – | – | – | –
COc1ccc(CCNc2nc3cc(F)ccc3c(=O)n2C)cc1 | 0.2 (≈ 0.0655 µg/mL) | > 30 | >10 | – | – | – | – | – | – | – | – | –
COc1ccc(CCNc2nc3cc(N)ccc3c(=O)n2C)cc1 | 0.04 (≈ 0.013 µg/mL) | – | 5 | 0.198 | – | – | – | – | 1.94 | – | – | –
Cn1c(NCCc2ccc(-c3ccc(Cl)cc3)nn2)nc2cc(Cl)ccc2c1=O | 0.03 (≈ 0.0128 µg/mL) | > 30 | 8 | 3.32 | – | – | – | – | 4.67 | – | – | –
Cn1c(NCCc2ccc(-c3ccc(F)cn3)cc2)nc2cc(Cl)ccc2c1=O | 0.015 (≈ 0.00613 µg/mL) | – | – | 3.14 | 19 | – | – | 0.051 (≈ 0.0209 µg/mL) | – | – | – | –
COc1cnc(-c2ccc(CCNc3nc4cc(Cl)ccc4c(=O)n3C)cc2)nc1 | 0.016 (≈ 0.00675 µg/mL) | – | – | 3.52 | > 30 | – | – | 0.081 (≈ 0.0342 µg/mL) | – | – | – | –
Cn1c(NCCc2ccc(N3CCOCC3)cc2)nc2cc(Cl)ccc2c1=O | 0.33 (≈ 0.132 µg/mL) | > 30 | 8 | > 10 | – | 11 | 8 (≈ 20.1 µM) | – | – | Permeable | 11 | 1090 (≈ 2740 µM)
COc1ccc(-c2ccc(CCNc3nc4cc(Cl)ccc4c(=O)n3C)nc2)cc1 | 0.32 (≈ 0.135 µg/mL) | 14.7 | 8 | – | – | – | – | – | 4.03 | – | – | –
COc1ccc(-c2ccc(CCNc3nc4cc(Cl)ccc4c(=O)n3C)cc2)nc1 | 0.06 (≈ 0.0253 µg/mL) | 11.9 | 8 | – | – | – | – | – | 4.67 | – | – | –
COc1ccc(CCNc2nc3cc(OC)ccc3c(=O)n2C)cc1 | 0.026 (≈ 0.00882 µg/mL) | > 30 | >10 | – | – | < 1 | 4 (≈ 11.8 µM) | – | 3.1 | Permeable | 10 | 734 (≈ 2160 µM)
Cn1c(NCCc2ccc(-c3ccc(F)cc3)cn2)nc2cc(Cl)ccc2c1=O | 0.06 (≈ 0.0245 µg/mL) | 0.057 | 8 | 4.02 | – | – | – | 0.201 (≈ 0.0822 µg/mL) | 4.23 | – | – | –
COc1ccc(CCCNc2nc3cc(Cl)ccc3c(=O)n2C)cc1 | 5.8 (≈ 2.08 µg/mL) | 16.8 | >10 | – | – | – | – | – | – | – | – | –
COc1ccc(CCNc2nc3cc(Cl)c(F)cc3c(=O)n2C)cc1 | 0.03 (≈ 0.0109 µg/mL) | > 30 | >10 | – | – | – | – | – | – | – | – | –
COc1ccc(CCNc2nc3ccc(Cl)cc3c(=O)n2C)cc1 | 0.9 (≈ 0.309 µg/mL) | 26.1 | >10 | – | – | – | – | – | – | – | – | –
COc1ccc(CCNc2nc3cc(Cl)ccc3c(=O)[nH]2)cc1 | 6.3 (≈ 2.08 µg/mL) | – | >10 | – | – | – | – | – | – | – | – | –
Cn1c(NCCc2ccc(Oc3ccccn3)cc2)nc2cc(Cl)ccc2c1=O | 0.06 (≈ 0.0244 µg/mL) | 12.1 | 8 | 7.37 | – | – | – | – | – | – | – | –
Cn1c(NCCc2ccc(Oc3ccc(Cl)cn3)cc2)nc2cc(Cl)ccc2c1=O | 0.02 (≈ 0.00883 µg/mL) | – | – | 1.76 | 13 | – | – | – | – | – | – | –

Structure (SMILES) | MIC80 [1] [µM] | IC50 at 40 h ([2]; HepG2 cells) [µM] | Ratio [3] | MIC80 [4] [µM] | IC50 at 40 h ([2]; hepg2) [µM] | IC50 (Cytochrome P450 3A4 [5]) [µM] | solubility thermodynamic [6] [µg/mL] | MIC80 [7] [µM] | logP [8] | permeability [9] | IC50 (Cytochrome P450 3A4 [10]) [µM] | solubility thermodynamic [11] [µg/mL]
COc1ccc(-c2ccc(CCNc3nc4cc(Cl)ccc4c(=O)n3C)cc2)cc1 | 0.007 (≈ 0.00294 µg/mL) | > 30 | 200 | 1.47 | – | 8 | < 1 | – | 5.13 | Permeable | 7.9 | 26 (≈ 61.9 µM)
COc1ccc(CCNc2nc3ccccc3c(=O)n2C)cc1 | 0.24 (≈ 0.0742 µg/mL) | > 30 | >10 | – | – | – | – | – | – | – | – | –
COc1ccc(NCc2nc3cc(Cl)ccc3c(=O)n2C)cc1 | 19.9 (≈ 6.56 µg/mL) | 15.7 | >10 | – | – | – | – | – | – | – | – | –
Cn1c(NCCc2ccc(-c3ccccc3)cc2)nc2cc(Cl)ccc2c1=O | 0.008 (≈ 0.00312 µg/mL) | 6.5 | 8 | 0.87 | – | > 30 | < 1 | 0.164 (≈ 0.0639 µg/mL) | 5.27 | Permeable | > 30 | 5 (≈ 12.8 µM)
Cn1c(NCCc2ccc(-c3ccccn3)cc2)nc2cc(Cl)ccc2c1=O | 0.027 (≈ 0.0106 µg/mL) | – | – | 25.2 | 16.5 | – | – | – | – | – | – | –
COc1ccc(CCNc2nc3cc(C#N)ccc3c(=O)n2C)cc1 | 0.48 (≈ 0.161 µg/mL) | 12.7 | >10 | – | – | – | – | – | – | – | – | –
Cn1c(NCCc2ccc(-n3cc(Cl)cn3)cc2)nc2cc(Cl)ccc2c1=O | 0.01 (≈ 0.00414 µg/mL) | 21.6 | 8 | 0.86 | – | 16 | < 1 | – | 4.67 | Permeable | – | < 1
CCn1c(NCCc2ccc(OC)cc2)nc2cc(Cl)ccc2c1=O | 1.1 (≈ 0.394 µg/mL) | 21 | >10 | – | – | – | – | – | – | – | – | –
COCCOc1ccc(CCNc2nc3cc(Cl)ccc3c(=O)n2C)cc1 | 0.08 (≈ 0.031 µg/mL) | > 30 | 8 | > 10 | – | – | – | – | 3.86 | – | – | –
Cn1c(NCCc2ccccc2)nc2cc(Cl)ccc2c1=O | 0.06 (≈ 0.0188 µg/mL) | 15.2 | 8 | 2.79 | – | 11 | < 1 | – | 4.24 | Permeable | 18 | 180 (≈ 574 µM)
Cn1c(NCCc2ccc(-c3ccc(Cl)cn3)cc2)nc2cc(Cl)ccc2c1=O | 0.002 (≈ 0.000851 µg/mL) | > 30 | 30 | 0.25 | – | > 30 | < 1 | 0.063 (≈ 0.0268 µg/mL) | 5.04 | Permeable | 8.4 | 21 (≈ 49.4 µM)
Cn1c(NCCc2ccc(-c3ccccc3)nn2)nc2cc(Cl)ccc2c1=O | 1.12 (≈ 0.439 µg/mL) | 15.1 | 8 | – | – | – | – | – | – | – | – | –
Cn1c(NCCc2ccc(-c3ncc(Cl)cn3)cc2)nc2cc(Cl)ccc2c1=O | 0.006 (≈ 0.00256 µg/mL) | > 30 | – | 0.11 | – | – | < 1 | 0.947 (≈ 0.404 µg/mL) | 5.02 | Permeable | – | 10 (≈ 23.5 µM)
Cn1c(NCCc2ccc(-c3ccccc3)cn2)nc2cc(Cl)ccc2c1=O | 0.004 (≈ 0.00156 µg/mL) | 18.3 | 8 | – | – | – | – | – | – | – | – | –
COc1ccc(CCNc2nc3cc(N(C)C)ccc3c(=O)n2C)cc1 | 0.11 (≈ 0.0388 µg/mL) | – | >10 | – | – | – | – | – | 1.94 | – | – | –
COc1ccc(-c2ccc(CCNc3nc4cc(Cl)ccc4c(=O)n3C)cc2)cn1 | 0.09 (≈ 0.0379 µg/mL) | 11.3 | 8 | – | – | – | – | – | 4.68 | – | – | –
COc1ccc(CCNc2nc3cc(Cl)ccc3c(=O)n2C)nc1 | 0.53 (≈ 0.183 µg/mL) | 27 | 8 | – | – | < 1 | 9 (≈ 26.1 µM) | – | 3.32 | Permeable | 7.4 | 1140 (≈ 3300 µM)
COc1ccc(CCNc2nc3cc(C)ccc3c(=O)n2C)cc1 | 0.01 (≈ 0.00323 µg/mL) | > 30 | >10 | – | – | < 1 | < 1 | – | – | Permeable | 4.8 | 221 (≈ 683 µM)
COc1ccc(-c2ccc(CCNc3nc4cc(Cl)ccc4c(=O)n3C)nn2)cc1 | 0.74 (≈ 0.312 µg/mL) | – | 8 | – | – | – | – | – | – | – | – | –
Cn1c(NCCc2ccc(OC(F)(F)F)cc2)nc2cc(Cl)ccc2c1=O | 0.07 (≈ 0.0278 µg/mL) | 9.9 | 8 | 2.33 | – | 4 | < 1 | – | 4.95 | Permeable | > 30 | 43 (≈ 108 µM)
